Results reported in patent publication US20190084909A1, “F[…] COMPOUNDS, COMPOSITIONS AND USES THEREOF” (YISSUM RESEARCH DEVELOPMENT COMPANY OF THE HEBREW …, priority 2015, published 2019).

Assays:
Male Swiss mice [1] = assay: Elevated plus maze (EPM), Example 9; format: in vivo; conditions: 10 mg/kg ip
Protocol: (§1) Male Swiss mice (25-30 g) originated from the Central Animal Farm of the School of Medicine of Ribeirão Preto (FMRP-USP) were maintained in groups of five animals per box (41×33×17 cm) in a temperature controlled room (24±2° C.) with a 12×12 h light-dark cycle. They received water and food ad libitum throughout the study period.
(§2) Cannabidiol (CBD; THC Pharm, 15-60 mg/kg) and HU-485 (1-10 mg/kg) were administered intraperitoneally (ip). All drugs were dissolved in 2% Tween 80 in sterile saline.
The wood-made EPM was located in a sound attenuated and temperature controlled room (23° C.), with one incandescent light (40 W) placed 1.3 m away from the maze. The apparatus consisted of two opposing open arms (30×5 cm) perpendicular to two enclosed arms (30×5×40 cm), with a central platform common to all arms (5×5 cm). The apparatus was elevated 50 cm above the ground and an acrylic edge (1 cm) surrounded the open arms to prevent animal falls. […] The test lasted for 5 min and the animal behavior was analyzed with the help of the Anymaze Software (version 4.5, Stoelting), which indicated the position of the animal in the maze and calculated the percentage of entries (Peo) and time spent in the open arms (Pto) and the number of entries in the enclosed arms (EA). […]
(§3) Results were analyzed by one-way ANOVA followed by Duncan test. […]

Male Swiss mice [2] = assay: Forced swimming test (FST), Example 9; format: in vivo; conditions: doses of 3 and 10 mg/kg ip; p<0.05
Protocol: as §1, §2
Animals were submitted to 6 min of forced swimming in glass cylinders (height 25 cm, diameter 17 cm) containing 10 cm of water at 23-25° C. Immobility time (characterized by slow movements necessary to avoid drowning) was measured during the last 4-min period. The water was changed after each trial to prevent the influence of alarm substances (Zanelati et al., 2010). Antidepressants typically decrease immobility time in this test.
Results were analyzed by one-way ANOVA followed by Duncan test. Significant level was set at p<0.05.
Animals received an injection of vehicle (V, n=7 animals/group) or HU-485 and were tested in the EPM 20 min later. Immediately after the test they were submitted to the FST for 6 min. Data represents the means±SEM of immobility time in the FST and the % of open arm entries and time spent in these arms of the EPM. * indicates difference from V group.

Male Swiss mice [3] = assay: Pre-pulse inhibition (PPI), impairment induced by amphetamine; format: in vivo
Protocol: as §1, §2
The PPI test was conducted simultaneously in two identical startle response systems (Med Associates, USA). A continuous acoustic signal provided a background white noise level of 65 dB. The pulse consists of a 105 dB white noise burst with a rise/decay of 5 ms and duration of 20 ms. The pre-pulse comprised pure 7000 Hz tones, 10 ms duration, with intensities set at 80, 85, and 90 dB. The setups were daily calibrated to ensure equal sensitivity throughout the experiments. Calibration was performed by adjusting the gain on the load cell amplifier to 150 arbitrary units (AU) at a standard weight appropriated for a 40 g mice. The limits of the load cell were −2047 to +2047 AU. Thirty min after the injection of the tested compounds mice received i.p. injections of amphetamine 10 mg/kg or vehicle. […] The first 10 pulse-alone trials allow for the within-session habituation to the startle stimulus and are not considered for PPI statistical analysis. The test consisted of 64 pseudo-random trials divided into eight different groups presented with an inter-stimulus interval of 30 s, and consisting of pulse alone (105 dB), pre-pulse alone (80, 85, or 90 dB), pre-pulse+pulse with 100 ms interval between pre-pulse and pulse, and no stimulus presented. […] Mean acoustic startle response to pulse-alone (P) trials and each pre-pulse+pulse (PP+P) trial was recorded for each subject. PPI was calculated by expressing the pre-pulse+pulse startle amplitude as a percentage of decrease from pulse-alone startle amplitude, according to the following formula: % PPI=100−[100×(PP+P/P)]. This transformation reduces statistical variability attributable to differences between animals and it is a direct PPI measure. Antipsychotic drugs typically attenuate PPI impairment induced by amphetamine.
as §3
Animals received a first injection of vehicle (V) or CBD, followed 30 min later, by vehicle (n=9) or amphetamine 10 mg/kg (V+amphetamine group=9 animals). PPI was evaluated at three-stimuli intensity (90, 85 and 80 dB). […]
Animals received a first injection of vehicle (V) or HU-485, followed 30 min later, by vehicle (n=7) or amphetamine 10 mg/kg (V+amphetamine group=7 animals). PPI was evaluated at three-stimuli intensity (90, 85 and 80 dB). […]

human CB2 = biological target: T1, human CB2 (Homo sapiens, UniProt P34972); assay: CB2 receptor binding assay, [3H]CP-55,940, membranes of transfected CHO cells
T1 construct: expressed in transfected cells; host or cells: CHO cells, stably transfected; crude membranes
Protocol: For CB1 receptor binding assay synaptosomal membranes from rat brains were used. Sabra male rats weighing ˜200 g were decapitated and their brains, without the brain stem, were quickly removed. Synaptosomal membranes were prepared from the brains by centrifugation and sucrose density gradient ultracentrifugation after their homogenization. The CB2 receptor binding assays were performed using crude membranes obtained from Chinese hamster ovary (CHO) cells stably transfected with the human CB2 cDNA.
Bound and free radioligand were separated by centrifugation (13,000 rpm for 6 min). Non-specific binding, which was determined with 50 nM unlabelled CP-55,940, was subtracted. Binding experiments were repeated 2-3 times and each point performed in triplicate. The Ki values were determined using the GraphPad Prism program (La Jolla, Calif., USA) and the Cheng-Prusoff equation.

T1 sequence (P34972 whole entry): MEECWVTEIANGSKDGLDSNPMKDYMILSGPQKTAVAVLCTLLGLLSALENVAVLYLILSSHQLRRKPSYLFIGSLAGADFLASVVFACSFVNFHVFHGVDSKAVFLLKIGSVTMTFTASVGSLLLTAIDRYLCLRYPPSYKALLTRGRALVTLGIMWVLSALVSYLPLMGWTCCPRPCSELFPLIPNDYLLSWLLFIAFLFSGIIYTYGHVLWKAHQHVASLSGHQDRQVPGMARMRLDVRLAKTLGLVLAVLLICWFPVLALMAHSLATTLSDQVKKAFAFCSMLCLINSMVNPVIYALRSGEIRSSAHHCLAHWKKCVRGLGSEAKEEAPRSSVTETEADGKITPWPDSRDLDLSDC

SMILES | number of enclosed arm entries (Male Swiss mice [1]) | percentage of time spent in the open arms of the EPM (Male Swiss mice [1]; Duncan p<0.05) | immobility time in the FST (Male Swiss mice [2]) | effect on PPI by itself (Male Swiss mice [3]; 30 mg/kg, without amphetamine) | effect on PPI impairment by amphetamine (Male Swiss mice [3]; HU-485 3, 10 and 30 mg/kg, any dose, amphetamine 10 mg/kg) | Ki (human CB2)
CCCCCc1cc(O)c(C2C=C(CF)CC[C@H]2C(C)C)c(O)c1 (stereo partly drawn) [HU-485] | without changing | increased | decreased | did not impair PPI | not attenuated | –
CCCCCc1cc(O)c(C2C=C(C)C(F)C[C@H]2C(C)C)c(O)c1 (stereo partly drawn) [HU-487] | – | – | – | – | – | 4 to 5 µM
